{
  "source": "patent US10294259B2",
  "about": "“Phenyl c-glucoside derivative containing deoxyglucose structure, preparation method and use thereof” (Tianjin Institute of Pharmaceutical Research, priority 2012, dated 2019);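 for Behaviors after administration with the compound to be tested: test animals were mice weighing 18-20 g, with both sexes in equal numbers in each group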",
  "key": {"[1]": {"tested_on": "SD rats (type 2 diabetes model)", "assay": "Urine glucose excretion in streptozotocin/high-fat high-sucrose diet type 2 diabetes model rats, glucose-oxidase method", "assay_type": "in vivo, rat", "conditions": "for Urine glucose excretion: 6 mg/kg intragastric, glucose 2 g/kg at 0.5 h, urine collected 0-12 h; for urine glucose excretion effect (comparison in words): compared with analogues or non-deoxy compounds", "experimental": "The health SD rats are injected intraperitoneally with multiple low doses of streptozotocin for modeling (type 2 diabetes model) after feeding with high-fat and high-sucrose diet, and the content of blood glucose is measured before and after modeling. After the modeling successful, the rats for modeling are randomly divided (8 rats/group) into one blank group (administering the same volume of 0.5% CMC sodium solution) and several groups for compounds to be tested (6 mg/kg) according to the content of 24-hour urine glucose and the body weight. Rats in each group are fasted for 16 hours before experiment. The experimental rats are administered intragastrically with glucose (2 g/kg) at 0.5 h after intragastrical administration with compounds to be tested. The urine is collected at the time-period of 0-12 h after administration, and the urine glucose values are measured at each time-period by glucose-oxidase method. […]"}, "hSGLT2": {"target": "hSGLT2 (Homo sapiens (Human), UniProt P31639)", "sequence (P31639 whole entry)": "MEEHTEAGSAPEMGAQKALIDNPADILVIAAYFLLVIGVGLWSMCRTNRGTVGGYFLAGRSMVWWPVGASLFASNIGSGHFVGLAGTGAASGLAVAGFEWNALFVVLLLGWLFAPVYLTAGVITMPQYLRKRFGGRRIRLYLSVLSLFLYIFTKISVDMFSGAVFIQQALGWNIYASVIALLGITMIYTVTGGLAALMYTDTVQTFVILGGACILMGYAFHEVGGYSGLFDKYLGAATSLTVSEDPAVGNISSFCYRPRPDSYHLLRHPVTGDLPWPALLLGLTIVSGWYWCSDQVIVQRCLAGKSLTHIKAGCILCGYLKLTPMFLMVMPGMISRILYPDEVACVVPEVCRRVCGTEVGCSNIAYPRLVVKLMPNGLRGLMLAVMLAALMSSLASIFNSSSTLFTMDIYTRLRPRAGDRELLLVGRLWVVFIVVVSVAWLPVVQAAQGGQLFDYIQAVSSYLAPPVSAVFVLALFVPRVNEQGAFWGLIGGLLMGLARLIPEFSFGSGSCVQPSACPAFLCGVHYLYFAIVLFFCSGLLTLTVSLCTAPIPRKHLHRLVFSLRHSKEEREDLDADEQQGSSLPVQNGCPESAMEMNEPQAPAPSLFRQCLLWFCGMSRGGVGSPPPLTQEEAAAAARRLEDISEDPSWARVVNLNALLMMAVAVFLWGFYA", "assay": "IC50 of inhibition on SGLT2 (method of Meng et al., J. Med. Chem. 2008)", "assay_type": "cell-based"}, "hSGLT1": {"target": "hSGLT1 (Homo sapiens (Human), UniProt P13866)", "sequence (P13866 whole entry)": "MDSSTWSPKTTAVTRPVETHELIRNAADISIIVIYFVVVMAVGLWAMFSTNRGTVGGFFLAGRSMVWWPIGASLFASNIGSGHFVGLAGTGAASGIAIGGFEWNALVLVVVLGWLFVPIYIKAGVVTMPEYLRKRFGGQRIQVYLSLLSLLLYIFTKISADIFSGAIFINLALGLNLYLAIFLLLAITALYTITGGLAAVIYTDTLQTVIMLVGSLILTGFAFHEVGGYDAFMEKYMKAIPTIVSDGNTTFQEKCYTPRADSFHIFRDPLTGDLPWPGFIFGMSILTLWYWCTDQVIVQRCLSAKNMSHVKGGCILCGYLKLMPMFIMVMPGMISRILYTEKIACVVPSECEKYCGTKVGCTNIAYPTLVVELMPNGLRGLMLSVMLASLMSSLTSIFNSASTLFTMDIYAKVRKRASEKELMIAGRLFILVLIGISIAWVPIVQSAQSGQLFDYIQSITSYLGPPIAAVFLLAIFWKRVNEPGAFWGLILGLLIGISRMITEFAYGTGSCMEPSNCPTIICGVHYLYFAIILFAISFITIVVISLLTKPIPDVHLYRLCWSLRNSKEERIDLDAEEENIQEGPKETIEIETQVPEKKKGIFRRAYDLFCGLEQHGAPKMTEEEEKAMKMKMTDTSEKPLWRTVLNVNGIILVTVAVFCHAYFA", "assay": "IC50 of inhibition on SGLT1 (method of Meng et al., J. Med. Chem. 2008)", "assay_type": "cell-based", "conditions": "compared with methoxyl and methyl analogues of Table 3"}, "[2]": {"assay": "Influencing factors test: light stability", "assay_type": "physicochemical", "conditions": "listed as I-D1-6 raw materials", "description": "(§1) The appearance, number of impurity and the amount of impurity (measured by HPLC) are compared with that of day 0."}, "[3]": {"assay": "Influencing factors test: higher temperature stability", "assay_type": "physicochemical", "conditions": "listed as I-D1-6 raw materials", "description": "as §1"}, "[4]": {"assay": "Influencing factors test: higher humidity stability", "assay_type": "physicochemical", "conditions": "listed as I-D1-6 raw materials", "description": "as §1"}, "Mice": {"tested_on": "Mice", "conditions": "single dose 750 mg/kg intragastric, 10 mice/group, observed one week", "quoted_text": "Mice (18-20 g) with equal numbers of male and female are divided into groups (10 mice/group), after normal feeding for 3 days, fasted for 12 hours, and then administered intragastrically with a single dose of 750 mg/kg compound respectively."}, "[5]": {"conditions": "compared with methoxyl and methyl analogues of Table 3"}},
  "data": [
    {"smiles": "CCc1ccc(Cc2cc(C3OC(CO)C(O)CC3O)ccc2C)cc1", "note": "(stereo not drawn)", "values": [
      {"measurement": "Urine glucose excretion", "setting": "[1]", "value": "230 mg/200 g body weight of the rat"}
    ]},
    {"smiles": "CCOc1ccc(Cc2cc([C@@H]3O[C@H](CO)C[C@H](O)[C@H]3O)ccc2Cl)cc1", "note": "[I-D1-4, (1S)-1-[4-chloro-3-(4-ethoxybenzyl)phenyl]-1,4-dideoxy-D-glucose]", "values": [
      {"measurement": "urine glucose excretion effect (comparison in words)", "setting": "[1]", "value": "stronger urine glucose excretion effect"}
    ]},
    {"smiles": "COc1ccc(Cc2cc(C3OC(C)C(O)C(O)C3O)ccc2Cl)cc1", "note": "(stereo not drawn) [drawing 311]", "values": [
      {"measurement": "Selectivity IC50 (hSGLT1)/IC50 (hSGLT2)", "setting": "hSGLT2", "value": 26}
    ]},
    {"smiles": "CCOc1ccc(Cc2cc(C3OC(C)(C)C(O)C(O)C3O)ccc2Cl)cc1", "note": "(stereo not drawn)", "values": [
      {"measurement": "Urine glucose excretion", "setting": "[1]", "value": "470 mg/200 g body weight of the rat"}
    ]},
    {"smiles": "CCOc1ccc(Cc2cc(C3OC(C)C(O)C(O)C3O)ccc2C)cc1", "note": "(stereo not drawn) [drawing 313]", "values": [
      {"measurement": "Selectivity IC50 (hSGLT1)/IC50 (hSGLT2)", "setting": "hSGLT2", "value": 24}
    ]},
    {"smiles": "CCOc1ccc(Cc2cc(C3OC(CO)CC(O)C3O)ccc2Cl)cc1", "note": "(stereo not drawn) [drawing 229]", "values": [
      {"measurement": "Urine glucose excretion", "setting": "[1]", "value": "880 mg/200 g body weight of the rat"}
    ]},
    {"smiles": "CCOc1ccc(Cc2cc([C@@H]3C[C@@H](O)[C@H](O)[C@@H](CO)O3)ccc2Cl)cc1", "note": "[I-D1-2, (1S)-1-[4-chloro-3-(4-ethoxybenzyl)phenyl]-1,2-dideoxy-D-glucose]", "values": [
      {"measurement": "urine glucose excretion effect (comparison in words)", "setting": "[1]", "value": "stronger urine glucose excretion effect"}
    ]},
    {"smiles": "CCOc1ccc(Cc2cc(C3OC(C)C(O)C(O)C3O)ccc2Cl)cc1", "note": "[I-D1-6, (1S)-1-[4-chloro-3-(4-ethoxybenzyl)phenyl]-1,6-dideoxy-D-glucose]", "values": [
      {"measurement": "urine glucose excretion effect (comparison in words)", "setting": "[1]", "value": "stronger urine glucose excretion effect"},
      {"measurement": "inhibition to SGLT2 (comparison in words)", "setting": "hSGLT2; [5]", "value": "much stronger inhibition to SGLT2"},
      {"measurement": "selectivity on SGLT1/SGLT2 (comparison in words)", "setting": "hSGLT2; [5]", "value": "much better selectivity on SGLT1/SGLT2"},
      {"measurement": "inhibition to SGLT1 (comparison in words)", "setting": "hSGLT1", "value": "much less inhibition to SGLT1"},
      {"measurement": "Appearance", "setting": "[2]; light (natural daylight, about 80000 Lx), day 0", "value": "a white, foam-like"},
      {"measurement": "Appearance", "setting": "[2]; light, day 7", "value": "a white, foam-like"},
      {"measurement": "Appearance", "setting": "[2]; light, day 14", "value": "a white, foam-like"},
      {"measurement": "Number of impurity", "setting": "[3]; 45° C., day 0, HPLC", "value": 7},
      {"measurement": "Total amount of impurity (%)", "setting": "[3]; 45° C., day 0, HPLC", "value": 0.89, "unit": "%"},
      {"measurement": "Number of impurity", "setting": "[3]; 45° C., day 7, HPLC", "value": 8},
      {"measurement": "Total amount of impurity (%)", "setting": "[3]; 45° C., day 7, HPLC", "value": 0.97, "unit": "%"},
      {"measurement": "Appearance", "setting": "[3]; 45° C., day 7", "value": "white, foam-like"},
      {"measurement": "Number of impurity", "setting": "[3]; 45° C., day 14, HPLC", "value": 9},
      {"measurement": "Appearance", "setting": "[3]; 45° C., day 14", "value": "white, foam-like"},
      {"measurement": "Appearance", "setting": "[3]; higher temperature (45° C.), day 0", "value": "white, foam-like"},
      {"measurement": "Appearance", "setting": "[4]; higher humidity (30% relative humidity at 30° C.), day 0", "value": "white, foam-like"},
      {"measurement": "Appearance", "setting": "[4]; higher humidity, day 7", "value": "white foam-like"},
      {"measurement": "Appearance", "setting": "[4]; higher humidity, day 14", "value": "white foam-like"}
    ]},
    {"smiles": "CCOc1ccc(Cc2cc(C3CCC(O)C(CO)S3)c(OC)cc2C)cc1", "note": "(stereo not drawn) [drawing 266]", "values": [
      {"measurement": "Urine glucose excretion", "setting": "[1]", "value": "730 mg/200 g body weight of the rat"}
    ]},
    {"smiles": "CCOc1ccc(Cc2cc([C@@H]3O[C@H](CO)[C@@H](O)C[C@H]3O)ccc2Cl)cc1", "note": "[I-D1-3, (1S)-1-[4-chloro-3-(4-ethoxybenzyl)phenyl]-1,3-dideoxy-D-glucose]", "values": [
      {"measurement": "urine glucose excretion effect (comparison in words)", "setting": "[1]", "value": "stronger urine glucose excretion effect"}
    ]},
    {"smiles": "COc1ccc(Cc2cc(C3OC(CO)CC(O)C3O)ccc2Cl)cc1", "note": "(stereo not drawn)", "values": [
      {"measurement": "Urine glucose excretion", "setting": "[1]", "value": "310 mg/200 g body weight of the rat"}
    ]},
    {"smiles": "OCC1OC(c2ccc(F)c(Cc3cc4ccccc4s3)c2)C(O)CC1O", "note": "(stereo not drawn)", "values": [
      {"measurement": "Behaviors after administration with the compound to be tested", "setting": "Mice", "value": 0, "unit": "dead"}
    ]},
    {"smiles": "CCOc1ccc(Cc2cc([C@]34C[C@@H](O)[C@H](O)[C@](CO)(CO3)O4)ccc2Cl)cc1", "values": [
      {"measurement": "Behaviors after administration with the compound to be tested", "setting": "Mice", "value": 2, "unit": "dead"}
    ]},
    {"smiles": "CCc1ccc(Cc2c(Cl)ccc3c2COC32OC(C)C(O)C(O)C2O)cc1", "note": "(stereo not drawn)", "values": [
      {"measurement": "Behaviors after administration with the compound to be tested", "setting": "Mice", "value": 3, "unit": "dead"}
    ]},
    {"smiles": "CCc1ccc(Cc2c(Cl)ccc3c2COC32CC(O)C(O)C(CO)O2)cc1", "note": "(stereo not drawn)", "values": [
      {"measurement": "Behaviors after administration with the compound to be tested", "setting": "Mice", "value": 2, "unit": "dead"}
    ]},
    {"smiles": "OCC1OC(c2ccc(Cl)c(Cc3ccc(O[C@H]4CCOC4)cc3)c2)C(O)C(O)C1O", "note": "(stereo partly drawn)", "values": [
      {"measurement": "Behaviors after administration with the compound to be tested", "setting": "Mice", "value": 7, "unit": "dead"}
    ]},
    {"smiles": "CCOc1ccc(Cc2cc([C@]34OC[C@](CO)(O3)[C@@H](O)[C@H](O)[C@H]4O)ccc2Cl)cc1", "values": [
      {"measurement": "Behaviors after administration with the compound to be tested", "setting": "Mice", "value": 9, "unit": "dead"}
    ]},
    {"smiles": "CCOc1ccc(Cc2cc(C3OC(C)C(O)C(O)C3O)ccc2C)cc1", "note": "(stereo not drawn) [drawing 219]", "values": [
      {"measurement": "Urine glucose excretion", "setting": "[1]", "value": "700 mg/200 g body weight of the rat"}
    ]},
    {"smiles": "CCc1ccc(Cc2c(Cl)ccc3c2COC32OC(CO)C(O)C(O)C2O)cc1", "note": "(stereo not drawn) [drawing 258]", "values": [
      {"measurement": "Urine glucose excretion", "setting": "[1]", "value": "755 mg/200 g body weight of the rat"}
    ]},
    {"smiles": "Cc1ccc(C2OC(C)C(O)C(O)C2O)cc1Cc1ccc(-c2ccc(F)cc2)s1", "note": "(stereo not drawn)", "values": [
      {"measurement": "Behaviors after administration with the compound to be tested", "setting": "Mice", "value": 4, "unit": "dead"}
    ]},
    {"smiles": "Cc1ccc(C2CC(O)C(O)C(CO)O2)cc1Cc1ccc(-c2ccc(F)cc2)s1", "note": "(stereo not drawn)", "values": [
      {"measurement": "Behaviors after administration with the compound to be tested", "setting": "Mice", "value": 5, "unit": "dead"}
    ]},
    {"smiles": "COc1ccc(Oc2cc(C3OC(C)C(O)C(O)C3O)ccc2Cl)cc1", "note": "(stereo not drawn)", "values": [
      {"measurement": "Urine glucose excretion", "setting": "[1]", "value": "457 mg/200 g body weight of the rat"}
    ]},
    {"smiles": "CC1OC(c2ccc(F)c(Cc3cc4ccccc4s3)c2)CC(O)C1O", "note": "(stereo not drawn)", "values": [
      {"measurement": "Behaviors after administration with the compound to be tested", "setting": "Mice", "value": 1, "unit": "dead"}
    ]},
    {"smiles": "Cc1ccc(C2OC(CO)C(O)CC2O)cc1Cc1ccc(-c2ccc(F)cc2)s1", "note": "(stereo not drawn)", "values": [
      {"measurement": "Behaviors after administration with the compound to be tested", "setting": "Mice", "value": 3, "unit": "dead"}
    ]},
    {"smiles": "CCc1ccc(Cc2c(Cl)ccc3c2COC32CC(O)CC(CO)O2)cc1", "note": "(stereo not drawn)", "values": [
      {"measurement": "Behaviors after administration with the compound to be tested", "setting": "Mice", "value": 1, "unit": "dead"}
    ]},
    {"smiles": "C=C1OC(c2ccc(Cl)c(Cc3ccc(OC)cc3)c2)C(O)C(O)C1O", "note": "(stereo not drawn)", "values": [
      {"measurement": "Urine glucose excretion", "setting": "[1]", "value": "410 mg/200 g body weight of the rat"}
    ]},
    {"smiles": "CCOc1ccc(Cc2cc(C3OC(CO)CC(O)C3O)ccc2Cl)cc1", "note": "(stereo not drawn) [drawing 272]", "values": [
      {"measurement": "Behaviors after administration with the compound to be tested", "setting": "Mice", "value": 2, "unit": "dead"}
    ]},
    {"smiles": "OCC1CC(O)C(O)C(c2ccc(Cl)c(Cc3ccc(O[C@H]4CCOC4)cc3)c2)O1", "note": "(stereo partly drawn)", "values": [
      {"measurement": "Behaviors after administration with the compound to be tested", "setting": "Mice", "value": 2, "unit": "dead"}
    ]}
  ]
}
